Target: BRCT(BRCA1) (Homo sapiens, UniProt P38398)
Experiment: fluorescence polarization competition
Assay type: binding
Excerpt: fluorescence polarization competition on BRCT(BRCA1)

Sequence of BRCT(BRCA1) (P38398 1646-1859): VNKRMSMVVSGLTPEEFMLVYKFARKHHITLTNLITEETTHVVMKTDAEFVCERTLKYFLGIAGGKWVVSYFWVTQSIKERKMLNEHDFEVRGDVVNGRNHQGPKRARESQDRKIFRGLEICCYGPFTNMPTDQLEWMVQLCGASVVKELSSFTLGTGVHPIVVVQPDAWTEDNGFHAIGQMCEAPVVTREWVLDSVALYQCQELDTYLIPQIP

- IC50: > 250 µM
Compound: CC(=O)N[C@@H](COP(=O)(O)O)C(=O)Nc1cccc(CC(=O)N[C@@H](Cc2ccccc2)C(=O)O)c1 [N1]
